Assay results published in patent US12491170B2, “Stable treprostinil prodrugs” (United Therapeutics Corporation, priority 2020, dated 2025).
Where two headings read alike, the source gives them in different places.

Columns and labels:
[1] = Stability in cryopreserved hepatocytes, rat; details: for AUC: rat
[2] = Stability in human subcutaneous skin homogenate; details: for AUC: human
[3] = Stability in liver microsomes, human; details: for AUC: human
[4] = dog
[5] = Stability in cryopreserved hepatocytes, dog; details: for AUC: dog
[6] = Stability in liver microsomes, rat
[7] = Stability in cryopreserved hepatocytes, human; details: for AUC: human
[8] = rat
[9] = Stability in liver microsomes, dog

CCCCCC(CCC1C(O)CC2Cc3c(cccc3OCC(=O)O)CC21)OC(=O)COc1ccc(O)cc1 (stereo not drawn) [LIV]
Trep Concentration (μM) 0 min [1]: 0.0862 µM | Trep Concentration (μM) 15 min [1]: 0.512 µM | Trep Concentration (μM) 30 min [1]: 0.426 µM | Trep Concentration (μM) 60 min [1]: 0.441 µM | Trep Concentration (μM) 120 min [1]: 0.455 µM | AUC [1]: 51.41 µmol·min/L | Trep Concentration 0 min [2]: 0 µM | Trep Concentration 30 min [2]: 0.486 µM | Trep Concentration 60 min [2]: 0.694 µM | Trep Concentration 120 min [2]: 0.848 µM | AUC [2]: 71.25 µmol·min/L | Trep Concentration 0 min [3]: 0.908 µM | Trep Concentration 10 min [3]: 0.679 µM | Trep Concentration 20 min [3]: 0.564 µM | Trep Concentration 30 min [3]: 0.463 µM | Trep Concentration 60 min [3]: 0.338 µM | AUC [3]: 31.30 µmol·min/L | AUC [4]: 39.99 µmol·min/L | Trep Concentration (μM) 0 min [5]: 0.00351 µM | Trep Concentration (μM) 15 min [5]: 0.295 µM | Trep Concentration (μM) 30 min [5]: 0.273 µM | Trep Concentration (μM) 60 min [5]: 0.262 µM | Trep Concentration (μM) 120 min [5]: 0.262 µM | AUC [5]: 30.24 µmol·min/L | Trep Concentration 0 min [6]: 0.849 µM | Trep Concentration 10 min [6]: 0.784 µM | Trep Concentration 20 min [6]: 0.765 µM | Trep Concentration 30 min [6]: 0.709 µM | Trep Concentration 60 min [6]: 0.811 µM | Trep Concentration (μM) 0 min [7]: 0.0156 µM | Trep Concentration (μM) 15 min [7]: 0.58 µM | Trep Concentration (μM) 30 min [7]: 0.47 µM | Trep Concentration (μM) 60 min [7]: 0.475 µM | Trep Concentration (μM) 120 min [7]: 0.461 µM | AUC [7]: 54.60 µmol·min/L | AUC [8]: 46.08 µmol·min/L | Trep Concentration 0 min [9]: 0.307 µM | Trep Concentration 10 min [9]: 0.544 µM | Trep Concentration 20 min [9]: 0.678 µM | Trep Concentration 30 min [9]: 0.729 µM | Trep Concentration 60 min [9]: 0.777 µM

CCCCCC(CCC1C(O)CC2Cc3c(cccc3OCC(=O)O)CC21)OC(=O)CC (stereo not drawn) [LV]
Trep Concentration (μM) 0 min [1]: 0.0159 µM | Trep Concentration (μM) 15 min [1]: 0.506 µM | Trep Concentration (μM) 30 min [1]: 0.48 µM | Trep Concentration (μM) 60 min [1]: 0.424 µM | Trep Concentration (μM) 120 min [1]: 0.391 µM | AUC [1]: 49.32 µmol·min/L | Trep Concentration 0 min [2]: 0.0045 µM | Trep Concentration 30 min [2]: 0.545 µM | Trep Concentration 60 min [2]: 0.741 µM | Trep Concentration 120 min [2]: 0.954 µM | AUC [2]: 78.38 µmol·min/L | Trep Concentration 0 min [3]: 1.17 µM | Trep Concentration 10 min [3]: 1.01 µM | Trep Concentration 20 min [3]: 0.837 µM | Trep Concentration 30 min [3]: 0.736 µM | Trep Concentration 60 min [3]: 0.389 µM | AUC [3]: 44.88 µmol·min/L | AUC [4]: 53.25 µmol·min/L | Trep Concentration (μM) 0 min [5]: 0.124 µM | Trep Concentration (μM) 30 min [5]: 0.698 µM | Trep Concentration (μM) 60 min [5]: 0.599 µM | Trep Concentration (μM) 120 min [5]: 0.53 µM | AUC [5]: 71.21 µmol·min/L | Trep Concentration 0 min [6]: 0.26 µM | Trep Concentration 10 min [6]: 0.43 µM | Trep Concentration 20 min [6]: 0.525 µM | Trep Concentration 30 min [6]: 0.586 µM | Trep Concentration 60 min [6]: 0.553 µM | Trep Concentration (μM) 0 min [7]: 0.113 µM | Trep Concentration (μM) 15 min [7]: 0.725 µM | Trep Concentration (μM) 30 min [7]: 0.654 µM | Trep Concentration (μM) 60 min [7]: 0.589 µM | Trep Concentration (μM) 120 min [7]: 0.527 µM | AUC [7]: 68.75 µmol·min/L | AUC [8]: 30.87 µmol·min/L | Trep Concentration 0 min [9]: 0.971 µM | Trep Concentration 10 min [9]: 0.961 µM | Trep Concentration 20 min [9]: 0.934 µM | Trep Concentration 30 min [9]: 0.915 µM | Trep Concentration 60 min [9]: 0.743 µM

CCCCCC(CCC1C(O)CC2Cc3c(cccc3OCC(=O)O)CC21)OC(=O)COc1ccc(OC(F)(F)F)cc1 (stereo not drawn) [LXIV]
Trep Concentration (μM) 0 min [1]: 0.0456 µM | Trep Concentration (μM) 15 min [1]: 0.374 µM | Trep Concentration (μM) 30 min [1]: 0.291 µM | Trep Concentration (μM) 60 min [1]: 0.234 µM | Trep Concentration (μM) 120 min [1]: 0.206 µM | AUC [1]: 29.21 µmol·min/L | Trep Concentration 0 min [2]: 0 µM | Trep Concentration 30 min [2]: 0.0793 µM | Trep Concentration 60 min [2]: 0.155 µM | Trep Concentration 120 min [2]: 0.283 µM | AUC [2]: 17.84 µmol·min/L | Trep Concentration 0 min [3]: 0.911 µM | Trep Concentration 10 min [3]: 0.752 µM | Trep Concentration 20 min [3]: 0.667 µM | Trep Concentration 30 min [3]: 0.596 µM | Trep Concentration 60 min [3]: 0.351 µM | AUC [3]: 35.93 µmol·min/L | AUC [4]: 35.13 µmol·min/L | Trep Concentration (μM) 0 min [5]: 0.0196 µM | Trep Concentration (μM) 15 min [5]: 0.466 µM | Trep Concentration (μM) 30 min [5]: 0.514 µM | Trep Concentration (μM) 60 min [5]: 0.485 µM | Trep Concentration (μM) 120 min [5]: 0.451 µM | AUC [5]: 54.06 µmol·min/L | Trep Concentration 0 min [6]: 0.803 µM | Trep Concentration 10 min [6]: 0.882 µM | Trep Concentration 20 min [6]: 0.91 µM | Trep Concentration 30 min [6]: 0.902 µM | Trep Concentration 60 min [6]: 0.753 µM | Trep Concentration (μM) 0 min [7]: 0.0116 µM | Trep Concentration (μM) 15 min [7]: 0.521 µM | Trep Concentration (μM) 30 min [7]: 0.509 µM | Trep Concentration (μM) 60 min [7]: 0.458 µM | Trep Concentration (μM) 120 min [7]: 0.411 µM | AUC [7]: 52.29 µmol·min/L | AUC [8]: 51.27 µmol·min/L | Trep Concentration 0 min [9]: 0.453 µM | Trep Concentration 10 min [9]: 0.548 µM | Trep Concentration 20 min [9]: 0.592 µM | Trep Concentration 30 min [9]: 0.603 µM | Trep Concentration 60 min [9]: 0.627 µM

CCCCCC(CCC1C(O)CC2Cc3c(cccc3OCC(=O)O)CC21)OC(=O)OCC(=O)O (stereo not drawn) [XXXIX]
Trep Concentration 0 min [2]: 0 µM | Trep Concentration 30 min [2]: 0 µM | Trep Concentration 60 min [2]: 0 µM | Trep Concentration 120 min [2]: 0 µM | AUC [2]: 0.00 µmol·min/L | Trep Concentration 0 min [3]: 0 µM | Trep Concentration 10 min [3]: 0 µM | Trep Concentration 20 min [3]: 0 µM | Trep Concentration 30 min [3]: 0 µM | Trep Concentration 60 min [3]: 0 µM | AUC [3]: 0.00 µmol·min/L | AUC [4]: 0.00 µmol·min/L | Trep Concentration 0 min [6]: 0 µM | Trep Concentration 10 min [6]: 0 µM | Trep Concentration 20 min [6]: 0 µM | Trep Concentration 30 min [6]: 0 µM | Trep Concentration 60 min [6]: 0 µM | AUC [8]: 0.00 µmol·min/L | Trep Concentration 0 min [9]: 0 µM | Trep Concentration 10 min [9]: 0 µM | Trep Concentration 20 min [9]: 0 µM | Trep Concentration 30 min [9]: 0 µM | Trep Concentration 60 min [9]: 0 µM

CCCCCC(CCC1C(O)CC2Cc3c(cccc3OCC(=O)O)CC21)OC(=O)C(C)N (stereo not drawn) [XXXI]
Trep Concentration 0 min [2]: 0 µM | Trep Concentration 60 min [2]: 0.204 µM | Trep Concentration 120 min [2]: 0.323 µM | AUC [2]: 22.23 µmol·min/L | Trep Concentration 0 min [3]: 0.0531 µM | Trep Concentration 10 min [3]: 0.193 µM | Trep Concentration 20 min [3]: 0.31 µM | Trep Concentration 30 min [3]: 0.327 µM | Trep Concentration 60 min [3]: 0.383 µM | AUC [3]: 17.58 µmol·min/L | AUC [4]: 35.65 µmol·min/L | Trep Concentration 0 min [6]: 0.00504 µM | Trep Concentration 10 min [6]: 0.0179 µM | Trep Concentration 20 min [6]: 0.0351 µM | Trep Concentration 30 min [6]: 0.0465 µM | Trep Concentration 60 min [6]: 0.107 µM | AUC [8]: 3.09 µmol·min/L | Trep Concentration 0 min [9]: 0.134 µM | Trep Concentration 10 min [9]: 0.479 µM | Trep Concentration 20 min [9]: 0.63 µM | Trep Concentration 30 min [9]: 0.674 µM | Trep Concentration 60 min [9]: 0.694 µM

CCCCCC(CCC1C(O)CC2Cc3c(cccc3OCC(=O)O)CC21)OC(=O)NCC(=O)O (stereo not drawn) [XXXVIII]
Trep Concentration 0 min [2]: 0 µM | Trep Concentration 30 min [2]: 0 µM | Trep Concentration 60 min [2]: 0 µM | Trep Concentration 120 min [2]: 0 µM | AUC [2]: 0.00 µmol·min/L | Trep Concentration 0 min [3]: 0 µM | Trep Concentration 10 min [3]: 0 µM | Trep Concentration 20 min [3]: 0 µM | Trep Concentration 30 min [3]: 0 µM | Trep Concentration 60 min [3]: 0 µM | AUC [3]: 0.00 µmol·min/L | AUC [4]: 0.00 µmol·min/L | Trep Concentration 0 min [6]: 0 µM | Trep Concentration 10 min [6]: 0 µM | Trep Concentration 20 min [6]: 0 µM | Trep Concentration 30 min [6]: 0 µM | Trep Concentration 60 min [6]: 0 µM | AUC [8]: 0.00 µmol·min/L | Trep Concentration 0 min [9]: 0 µM | Trep Concentration 10 min [9]: 0 µM | Trep Concentration 20 min [9]: 0 µM | Trep Concentration 30 min [9]: 0 µM | Trep Concentration 60 min [9]: 0 µM

CCCCCC(CCC1C(O)CC2Cc3c(cccc3OCC(=O)O)CC21)OC(=O)CN (stereo not drawn) [XXX]
Trep Concentration 0 min [2]: 0 µM | Trep Concentration 30 min [2]: 0.206 µM | Trep Concentration 60 min [2]: 0.369 µM | Trep Concentration 120 min [2]: 0.533 µM | AUC [2]: 38.78 µmol·min/L | Trep Concentration 0 min [3]: 0.036 µM | Trep Concentration 10 min [3]: 0.132 µM | Trep Concentration 20 min [3]: 0.227 µM | Trep Concentration 30 min [3]: 0.31 µM | Trep Concentration 60 min [3]: 0.429 µM | AUC [3]: 16.41 µmol·min/L | AUC [4]: 30.11 µmol·min/L | Trep Concentration 0 min [6]: 0.011 µM | Trep Concentration 10 min [6]: 0.0524 µM | Trep Concentration 20 min [6]: 0.0901 µM | Trep Concentration 30 min [6]: 0.122 µM | Trep Concentration 60 min [6]: 0.196 µM | AUC [8]: 6.86 µmol·min/L | Trep Concentration 0 min [9]: 0.0977 µM | Trep Concentration 10 min [9]: 0.347 µM | Trep Concentration 20 min [9]: 0.495 µM | Trep Concentration 30 min [9]: 0.562 µM | Trep Concentration 60 min [9]: 0.664 µM
